Here are results for four molecules from article PMC9561414 (2022).

Common to all, as to assay: RelE cleavage translation initiation assay (PAGE)
For experiment [1], the system named is Pae Gdm OFF (RNA, riboswitch) GGUUUCAGCCGGAAGCGGGAAAACCCGUUUUCCCUCUUUCAUUGCGCGGGGACGACCCUGCAGAGAGGCUGAAAAUGUAGUGGAUCUAUCUCUUGCUCGUA
To be noted: 30 mM K+ (KCl), 7 mM Mg2+, 70 mM NH4Cl; 50 mM HEPES-KOH pH 7.5, 37 °C, 70S ribosomes, IFs; no response up to 25 mM guanidine.

Experiment [2] deals with Pae Gdm WT (RNA, riboswitch) GGUUUCAGCCGGAAGCGGGACGACCCGUUUUCCCUCUUUCAUUGCGCGGGGACGACCCUGCAGAGAGGCUGAAAAUGUAGUGGAUCUAUCUCUUGCUCGUA
To be noted: 30 mM K+ (KCl), 7 mM Mg2+, 70 mM NH4Cl, 50 mM HEPES-KOH pH 7.5, 37 °C, 70S ribosomes, IFs.

Experiment [3] deals with Vvu add U61C (RNA, riboswitch) GCUUCAUAUAAUCCUAAUGAUAUGGUUUGGGAGUUUCUACCAAGAGCCUUAAACUCUUGACUAUGAAGUCUGUCGCUUUAUCCGAAAUUUUAUAAAGAGAAGACUCAUGUAGAAUUACUUUGACCUGCCG
To be noted: 30 mM K+ (KCl), 7 mM Mg2+, 70 mM NH4Cl, 50 mM HEPES-KOH pH 7.5, 37 °C, 70S ribosomes, IFs.

The subject of experiment [4] is Vvu add (WT) (RNA, riboswitch) GCUUCAUAUAAUCCUAAUGAUAUGGUUUGGGAGUUUCUACCAAGAGCCUUAAACUCUUGAUUAUGAAGUCUGUCGCUUUAUCCGAAAUUUUAUAAAGAGAAGACUCAUGUAGAAUUACUUUGACCUGCCG
Conditions: 30 mM K+ (KCl), 7 mM Mg2+, 70 mM NH4Cl; 50 mM HEPES-KOH pH 7.5, 37 °C, 70S ribosomes, IFs; apparent.

SMILES strings stand for the structures.

Regarding `N=C(N)N`, the binding entry in experiment [1] was “no”. Further, in experiment [2] (apparent, Hill 1.5 ± 0.2), the K1/2 came to 2.2 ± 0.2 mM.
For `Nc1nc2[nH]cnc2c(=O)[nH]1`, the K1/2 in experiment [3] (apparent) is 87 ± 3 nM.
With `Nc1ncnc2[nH]cnc12`, in experiment [3] (no response up to 500 μM adenine), the binding result is on record as “no”. In addition, the K1/2 in experiment [4] is 1.4 ± 0.7 µM.
As for `NC(N)=O`, in experiment [2] (no modulation at 50 mM urea), the binding result is on record as “no”.
